The source of these data is patent US20070232492A1, “Herbicidal Composition” (Ishihara Sangyo Kaisha, LTD., priority 2004, published 2007).

The test system of the test is barnyardgrass (Echinochloa oryzicola vasing). Briefly: Growth inhibition of barnyardgrass in paddy soil pots, application under submerged condition, visual rating (observed value) and Colby expected value. The format is in vivo. Conditions: for inhibition at 51 g/ha: 0.51 g/a; for inhibition at 7.9 g/ha: 0.079 g/a; for inhibition at 15.8 g/ha: 0.158 g/a; for inhibition at 50 g/ha: 0.5 g/a; for inhibition at 112.5 g/ha: 1.125 g/a; for inhibition at 225 g/ha: 2.25 g/a.
Excerpt: When the herbicidal activity in a case where two active ingredients are combined, is larger than the simple sum of the respective herbicidal activities of the two active ingredients (the expected activity), it is called a synergistic effect. The activity expected by the combination of two active ingredients can be calculated as follows (Colby S. R., “Weed”, vol. 15, p. 20-22, 1967). E=p+q−(p×q÷100) where p: growth inhibition rate when treated with x (g/a) of herbicide X,
q: growth inhibition rate when treated with y (g/a) of herbicide Y,
E: growth inhibition rate expected when treated with x (g/a) of herbicide X and y (g/a) of herbicide Y.
Namely, when the actual growth inhibition rate (observed value) is larger than the growth inhibition rate by the above calculation (expected value), the activity by the combination can be regarded as showing a synergistic effect.
Paddy field soil was put into a 1/10,000 are pot, and seeds of barnyardgrass (Echinochloa oryzicola vasing) were sown and left to stand under an irrigated condition with a water depth of 3.5 cm. When barnyardgrass reached 2.0 to 2.5 leaf stage, wettable powders of compound A2 and compound (B1.1) were, respectively, diluted with water and applied under submerged condition so that the active ingredients became the prescribed amounts, respectively. The state of growth was visually observed 21 days after application, and the growth inhibition rate (%) evaluated in accordance with the following evaluation standard (observed value) and the growth inhibition rate (%) calculated by the above-mentioned Colby method (expected value) are shown in Table 1.
Growth inhibition rate (%)=0% (equivalent to the non-treated area) to 100% (complete kill)
(§1) Paddy field soil was put into a 1/10,000 are pot, and seeds of barnyardgrass (Echinochloa oryzicola vasing) were sown and left to stand under an irrigated condition with a water depth of 3.5 cm. When barnyardgrass reached 2.0 to 2.5 leaf stage, wettable powders of compound A2 and compound (B2.1) were, respectively, diluted with water and applied under submerged condition so that the active ingredients became the prescribed amounts, respectively. The state of growth was visually observed 21 days after application, and evaluation and calculation were carried out in the same manner as in the above Test Example 1.
as §1, with “leaf stage, a wettable powder” for “leaf stage, wettable powders”, “a wettable powder of compound” for “stage, wettable powders of compound”, “A2 and an emulsifiable concentrate of compound (B3.1)” for “A2 and compound (B2.1)”, “of compound (B3.1) were, respectively,” for “and compound (B2.1) were, respectively,”
as §1, with “(B4.1)” for “(B2.1)”
Paddy field soil was put into a 1/10,000 are pot, and seeds of barnyardgrass (Echinochloa oryzicola vasing) were sown and left to stand under an irrigated condition with a water depth of 3.5 cm. […]

[1] abbreviates: Echinochloa oryzicola, soil, 336 h, 2.8 to 3.4 leaf stage, 14 days after application, Test Examples 66-72, read-out: Growth inhibition rate (%) Observed.
[2] abbreviates: Echinochloa oryzicola, soil, 504 h, 2.0 to 2.5 leaf stage, 21 days after application, read-out: Growth inhibition rate (%) Observed.
The mark [3] stands for this setting: Echinochloa oryzicola, soil, 504 h, 3.0 to 3.3 leaf stage, 21 days after application, read-out: Growth inhibition rate (%) Observed.
[4] abbreviates: Echinochloa oryzicola, soil, 528 h, 2.5 to 3.0 leaf stage, 22 days after application, read-out: Growth inhibition rate (%) Observed.
Setting [5] is: Echinochloa oryzicola, soil, 528 h, 2.1 to 3.2 leaf stage, 22 days after application, read-out: Growth inhibition rate (%) Observed.

Molecules are shown by their SMILES. Like-named read-outs stand apart in the source and are kept apart here.

Take `COC(=O)c1ccccc1CS(=O)(=O)NC(=O)Nc1nc(OC)cc(OC)n1` [Compound (B1.1), bensulfuron-methyl]: the inhibition at 25.5 g/ha (Echinochloa oryzicola, soil, 336 h, 0.255 g/a, 2.8 to 3.4 leaf stage, 14 days after application, Test Examples 66-72, read-out: Growth inhibition rate (%) Observed) is 30%. Also, the inhibition at 51 g/ha runs as follows: under setting [1], 45%; under setting [2], 57%. Moreover, the inhibition at 26 g/ha (Echinochloa oryzicola, soil, 504 h, 0.26 g/a, 2.0 to 2.5 leaf stage, 21 days after application, read-out: Growth inhibition rate (%) Observed) stood at 47%.
For the molecule `CCOC(=O)c1cnn(C)c1S(=O)(=O)NC(=O)Nc1nc(OC)cc(OC)n1` [Compound (B1.3), pyrazosulfuron-ethyl], the inhibition at 7.9 g/ha reads like this: under setting [3], 20%; under setting [4], 50%. Besides, the inhibition at 15.8 g/ha by setting is: under setting [3], 37%; under setting [4], 70%.
As for `COc1cc(OC)nc(NC(=O)NS(=O)(=O)c2c(Cl)nc3ccccn23)n1` [Compound (B1.4), imazosulfuron], the inhibition at 45 g/ha (Echinochloa oryzicola, soil, 336 h, 0.45 g/a, 2.8 to 3.4 leaf stage, 14 days after application, Test Examples 66-72, read-out: Growth inhibition rate (%) Observed) was found to be 25%. Moreover, the inhibition at 90 g/ha (Echinochloa oryzicola, soil, 336 h, 0.9 g/a, 2.8 to 3.4 leaf stage, 14 days after application, Test Examples 66-72, read-out: Growth inhibition rate (%) Observed) was 40%. Moreover, where the note is “Echinochloa oryzicola, soil, 528 h, 0.338 g/a, 2.5 to 3.0 leaf stage, 22 days after application, read-out: Growth inhibition rate (%) Observed”, the inhibition at 33.8 g/ha came to 53%. Besides, the inhibition at 67.5 g/ha (Echinochloa oryzicola, soil, 528 h, 0.675 g/a, 2.5 to 3.0 leaf stage, 22 days after application, read-out: Growth inhibition rate (%) Observed) is 57%.
As to `CCOc1ccccc1OS(=O)(=O)NC(=O)Nc1nc(OC)cc(OC)n1` [Compound (B1.5), ethoxysulfuron], the inhibition at 10.5 g/ha (Echinochloa oryzicola, soil, 336 h, 0.105 g/a, 2.8 to 3.4 leaf stage, 14 days after application, Test Examples 66-72, read-out: Growth inhibition rate (%) Observed) amounted to 10%. The inhibition at 21 g/ha (Echinochloa oryzicola, soil, 336 h, 0.21 g/a, 2.8 to 3.4 leaf stage, 14 days after application, Test Examples 66-72, read-out: Growth inhibition rate (%) Observed) was 20%. For the same molecule, under setting [4], the inhibition at 7.9 g/ha turned out to be 0% and the inhibition at 15.8 g/ha was 3%.
Regarding `COC(=O)c1c(Cl)nn(C)c1S(=O)(=O)NC(=O)Nc1nc(OC)cc(OC)n1` [Compound (B1.6), halosulfuron-methyl], the inhibition at 30 g/ha (Echinochloa oryzicola, soil, 456 h, read-out: Growth inhibition rate (%) Observed, 0.3 g/a, 2.8 to 3.2 leaf stage, 19 days after application, Test Examples 62-65) came out at 25%. Further, where the note is “Echinochloa oryzicola, soil, 456 h, read-out: Growth inhibition rate (%) Observed, 0.6 g/a, 2.8 to 3.2 leaf stage, 19 days after application, Test Examples 62-65”, the inhibition at 60 g/ha was determined as 40%.
In the case of `CO/N=C(\C)c1cccc(Oc2nc(OC)cc(OC)n2)c1C(=O)OC` [Compound (B2.1), pyriminobac-methyl], for the setting “Echinochloa oryzicola, soil, 336 h, read-out: Growth inhibition rate (%) Observed, 0.9 g/a, 2.8 to 3.4 leaf stage, 14 days after application, Test Examples 66-72”, the inhibition at 90 g/ha was found to be 60%. Also, the inhibition at 22.5 g/ha (Echinochloa oryzicola, soil, 504 h, read-out: Growth inhibition rate (%) Observed, 0.225 g/a, 2.0 to 2.5 leaf stage, 21 days after application) was found to be 60%. In addition, the inhibition at 45 g/ha (Echinochloa oryzicola, soil, 504 h, read-out: Growth inhibition rate (%) Observed, 0.45 g/a, 2.0 to 2.5 leaf stage, 21 days after application) is 80%.
Regarding `COCc1cccc(C(O)c2nc(OC)cc(OC)n2)c1NS(=O)(=O)C(F)F` (stereo not drawn) [Compound (B2.2), KUH-021], the “Growth inhibition rate (%) Observed” value (0.25 g/a, 2.8 to 3.2 leaf stage, 21 days after application, Test Examples 39-43) came out at 60% and the “Growth inhibition rate (%) Observed” value (0.335 g/a, 2.8 to 3.2 leaf stage, 21 days after application, Test Examples 39-43) was found to be 68%.
Take `CS(=O)(=O)c1ccc(C(=O)C2C(=O)CCCC2=O)c([N+](=O)[O-])c1` [Compound (B4.2), mesotrione]: the inhibition at 25 g/ha was determined as 0% (Echinochloa oryzicola, soil, 336 h, 0.25 g/a, 2.8 to 3.4 leaf stage, 14 days after application, Test Examples 66-72, read-out: Growth inhibition rate (%) Observed) and 0% (Echinochloa oryzicola, soil, 504 h, 0.25 g/a, 2.0 to 2.5 leaf stage, 21 days after application, read-out: Growth inhibition rate (%) Observed). Further, the inhibition at 50 g/ha is 0% under setting [1] and 0% under setting [2].
Turning to `Cc1nn(C)c(OCC(=O)c2ccccc2)c1C(=O)c1ccc(Cl)cc1Cl` [Compound (B4.3), pyrazoxyfen], the “Growth inhibition rate (%) Observed” value worked out at 0% (5.63 g/a, 2.5 to 3.0 leaf stage, 22 days after application) and 10% (11.25 g/a, 2.5 to 3.0 leaf stage, 22 days after application).
As to `CS(=O)(=O)c1ccc(C(=O)C2C(=O)CCCC2=O)c(Cl)c1COCC1CCCO1` (stereo not drawn) [Compound (B4.4), AVH-301], under setting [1], the inhibition at 112.5 g/ha amounted to 0% and the inhibition at 225 g/ha was 0%. Also, under setting [5], the inhibition at 112.5 g/ha came to 13% and the inhibition at 225 g/ha is 13%.
In the case of `Cc1ccc(S(=O)(=O)Oc2c(C(=O)c3ccc(Cl)cc3Cl)c(C)nn2C)cc1` [Compound (B4.5), pyrazolynate], the inhibition at 500 g/ha (Echinochloa oryzicola, soil, 456 h, 5 g/a, 2.8 to 3.2 leaf stage, 19 days after application, Test Examples 62-65, read-out: Growth inhibition rate (%) Observed) is 0%. For the setting “Echinochloa oryzicola, soil, 456 h, 10 g/a, 2.8 to 3.2 leaf stage, 19 days after application, Test Examples 62-65, read-out: Growth inhibition rate (%) Observed”, the inhibition at 1000 g/ha is 0%.
For the molecule `Cc1ccc(C(=O)COc2c(C(=O)c3ccc(Cl)c(C)c3Cl)c(C)nn2C)cc1` [Compound (B4.6), benzofenap], the “Growth inhibition rate (%) Observed” value (5 g/a, 2.8 to 3.2 leaf stage, 19 days after application, Test Examples 62-65) is listed as 0% and the “Growth inhibition rate (%) Observed” value (10 g/a, 2.8 to 3.2 leaf stage, 19 days after application, Test Examples 62-65) stood at 0%.
For the molecule `CC(C)(NC(=O)NCc1ccccc1Cl)c1ccccc1` [Compound (B6.2), cumyluron], the inhibition at 750 g/ha (Echinochloa oryzicola, soil, 504 h, 7.5 g/a, 2.0 to 2.5 leaf stage, 21 days after application, read-out: Growth inhibition rate (%) Observed) amounted to 3%. In addition, the inhibition at 1500 g/ha (Echinochloa oryzicola, soil, 504 h, 15 g/a, 2.0 to 2.5 leaf stage, 21 days after application, read-out: Growth inhibition rate (%) Observed) amounted to 3%.
